What all share (format): functional
Experiment [1] relates to Candida albicans. The experiment in a line: Antifungal activity against Candida albicans ATCC SC5314 assessed as fungal growth inhibition by NCCLS protocol based method.
Experiment [2] concerns Candida albicans. The experiment in a line: Antifungal activity against Candida albicans CPCC400616 assessed as fungal growth inhibition by NCCLS protocol based method.
The subject of another experiment is Candida tropicalis. The experiment in a line: Antifungal activity against Candida tropicalis CGMCC 2.3739 assessed as fungal growth inhibition by NCCLS protocol based method.
The next experiment relates to Cryptococcus neoformans. The experiment in a line: Antifungal activity against Cryptococcus neoformans CGMCC 2.3161 assessed as fungal growth inhibition by NCCLS protocol based method.
The next experiment relates to Candida parapsilosis. The experiment in a line: Antifungal activity against Candida parapsilosis GIM2.190 assessed as fungal growth inhibition by NCCLS protocol based method. The settings on record: Lodderomyces parapsilosis.
The subject of another experiment is Nakaseomyces glabratus. The experiment in a line: Antifungal activity against Candida glabrata clinical isolate assessed as fungal growth inhibition by NCCLS protocol based method.
Another experiment concerns Pichia kudriavzevii. The experiment in a line: Antifungal activity against Candida krusei GIM2.1 assessed as fungal growth inhibition by NCCLS protocol based method.
A further experiment relates to Aspergillus fumigatus. The experiment in a line: Antifungal activity against Aspergillus fumigatus CGMCC3.7795 assessed as fungal growth inhibition by NCCLS protocol based method.

Each structure is given as a SMILES string. Values after ≈ are worked out from the molar mass of the structure shown.

What is called MIC is the lowest concentration found to suppress growth.

On to `CCOc1ccc(-c2ccc(C3=NC(Cn4ccnc4)(c4ccc(F)cc4)CO3)s2)cc1` (configuration not stated), for which the MIC with Candida albicans [1] was 0.5 µg/mL (≈ 1.12 µM); in the experiment with Candida albicans [2], 2 µg/mL (≈ 4.47 µM); with Candida tropicalis it was 1 µg/mL (≈ 2.23 µM); in the experiment on Cryptococcus neoformans, over 64 µg/mL; in the experiment on Candida parapsilosis it was over 64 µg/mL; in the experiment with Nakaseomyces glabratus, 32 µg/mL (≈ 71.5 µM). In addition, the MIC is over 64 µg/mL with Pichia kudriavzevii and 8 µg/mL (≈ 17.9 µM) in the experiment on Aspergillus fumigatus.
Take `Fc1ccc(-c2ccc(C3=NC(Cn4ccnc4)(c4ccc(F)cc4)CO3)s2)cc1` (configuration not stated): the MIC in the experiment with Candida albicans [1] is 2 µg/mL (≈ 4.75 µM); with Candida albicans [2], 1 µg/mL (≈ 2.37 µM); in the experiment with Candida tropicalis it was 0.5 µg/mL (≈ 1.19 µM); in the experiment with Cryptococcus neoformans, 8 µg/mL (≈ 19 µM); with Candida parapsilosis, over 64 µg/mL; in the experiment with Nakaseomyces glabratus, over 64 µg/mL. Besides, the minimal inhibitory concentration (MIC) in the experiment with Pichia kudriavzevii is 16 µg/mL (≈ 38 µM); in the experiment with Aspergillus fumigatus it was 8 µg/mL (≈ 19 µM).
Take `Fc1ccc(C2(Cn3ccnc3)COC(c3ccc(-c4cccc(OC(F)(F)F)c4)s3)=N2)cc1` (configuration not stated): the MIC in the experiment with Candida albicans [1], with Candida albicans [2], in the experiment with Candida tropicalis, in the experiment with Cryptococcus neoformans, with Candida parapsilosis and in the experiment with Nakaseomyces glabratus was over 64 µg/mL throughout. The MIC with Pichia kudriavzevii and in the experiment with Aspergillus fumigatus was over 64 µg/mL each time.
Turning to `CCc1ccccc1-c1ccc(C2=NC(Cn3ccnc3)(c3ccc(F)cc3)CO2)s1` (configuration not stated), the MIC with Candida albicans [1], in the experiment on Candida albicans [2], with Candida tropicalis, in the experiment on Cryptococcus neoformans, with Candida parapsilosis and with Nakaseomyces glabratus was over 64 µg/mL throughout. Also, the minimal inhibitory concentration (MIC) with Pichia kudriavzevii and in the experiment on Aspergillus fumigatus was over 64 µg/mL in each case.
For `COc1cccc(-c2ccc(C3=NC(Cn4ccnc4)(c4ccc(F)cc4)CO3)s2)c1` (configuration not stated), the MIC in the experiment on Candida albicans [1], in the experiment with Candida albicans [2], in the experiment on Candida tropicalis, in the experiment with Cryptococcus neoformans, in the experiment on Candida parapsilosis and in the experiment on Nakaseomyces glabratus was over 64 µg/mL throughout. In addition, the MIC in the experiment on Pichia kudriavzevii and in the experiment on Aspergillus fumigatus was over 64 µg/mL in each case.
With `FC(F)(F)c1ccc(C2(Cn3ccnc3)COC(c3ccc(-c4ccccc4)s3)=N2)cc1` (configuration not stated), the MIC with Candida albicans [1] is 0.125 µg/mL (≈ 0.276 µM); in the experiment with Candida albicans [2] it was 0.5 µg/mL (≈ 1.1 µM); in the experiment with Candida tropicalis, over 64 µg/mL; in the experiment on Cryptococcus neoformans it was over 64 µg/mL; with Candida parapsilosis, over 64 µg/mL; with Nakaseomyces glabratus it was over 64 µg/mL. For the same compound, the MIC in the experiment on Pichia kudriavzevii and with Aspergillus fumigatus was over 64 µg/mL throughout.
Consider `Fc1ccc(C2(Cn3ccnc3)COC(c3ccc(-c4ccc(Cl)cc4)s3)=N2)cc1` (configuration not stated), for which the MIC in the experiment with Candida albicans [1] was 8 µg/mL (≈ 18.3 µM); with Candida albicans [2] it was 2 µg/mL (≈ 4.57 µM); in the experiment with Candida tropicalis, 4 µg/mL (≈ 9.13 µM); in the experiment with Cryptococcus neoformans it was over 64 µg/mL; in the experiment on Candida parapsilosis it was over 64 µg/mL; with Nakaseomyces glabratus it was over 64 µg/mL. The minimum inhibitory concentration (MIC) with Pichia kudriavzevii and with Aspergillus fumigatus was 8 µg/mL (≈ 18.3 µM) each time.
`Fc1ccc(C2(Cn3ccnc3)COC(c3ccc(-c4ccccc4Cl)s3)=N2)cc1` (configuration not stated): the MIC with Candida albicans [1] was 0.5 µg/mL (≈ 1.14 µM); in the experiment with Candida albicans [2], 0.25 µg/mL (≈ 0.571 µM); with Candida tropicalis it was over 64 µg/mL; in the experiment on Cryptococcus neoformans, over 64 µg/mL; in the experiment on Candida parapsilosis, over 64 µg/mL; in the experiment on Nakaseomyces glabratus it was over 64 µg/mL. The values for the MIC in the experiment on Pichia kudriavzevii and in the experiment on Aspergillus fumigatus were over 64 µg/mL and 16 µg/mL (≈ 36.5 µM), respectively.
With `CC(C)c1ccccc1-c1ccc(C2=NC(Cn3ccnc3)(c3ccc(F)cc3)CO2)s1` (configuration not stated), the MIC with Candida albicans [1], with Candida albicans [2], in the experiment on Candida tropicalis, in the experiment on Cryptococcus neoformans, with Candida parapsilosis and in the experiment on Nakaseomyces glabratus was over 64 µg/mL in each case. Moreover, the minimal inhibitory concentration (MIC) with Pichia kudriavzevii and in the experiment with Aspergillus fumigatus was over 64 µg/mL in each case.
For the compound `CCc1ccc(-c2ccc(C3=NC(Cn4ccnc4)(c4ccc(F)cc4)CO3)s2)cc1` (configuration not stated), the MIC with Candida albicans [1] was 4 µg/mL (≈ 9.27 µM); in the experiment with Candida albicans [2] it was 4 µg/mL (≈ 9.27 µM); in the experiment on Candida tropicalis it was over 64 µg/mL; with Cryptococcus neoformans, over 64 µg/mL; in the experiment with Candida parapsilosis it was 16 µg/mL (≈ 37.1 µM); in the experiment with Nakaseomyces glabratus it was 64 µg/mL (≈ 148 µM). Besides, the MIC in the experiment on Pichia kudriavzevii is over 64 µg/mL; in the experiment with Aspergillus fumigatus, 4 µg/mL (≈ 9.27 µM).
Turning to `N#Cc1cccc(-c2ccc(C3=NC(Cn4ccnc4)(c4ccc(F)cc4)CO3)s2)c1` (configuration not stated), the MIC in the experiment on Candida albicans [1] is 0.5 µg/mL (≈ 1.17 µM); in the experiment on Candida albicans [2] it was 0.5 µg/mL (≈ 1.17 µM); in the experiment on Candida tropicalis, 1 µg/mL (≈ 2.33 µM); in the experiment with Cryptococcus neoformans, 2 µg/mL (≈ 4.67 µM); in the experiment on Candida parapsilosis it was over 64 µg/mL; in the experiment with Nakaseomyces glabratus it was over 64 µg/mL. Moreover, the MIC was over 64 µg/mL with Pichia kudriavzevii and 16 µg/mL (≈ 37.3 µM) in the experiment on Aspergillus fumigatus.
Regarding `Fc1cccc(C2(Cn3ccnc3)COC(c3ccc(-c4ccccc4)s3)=N2)c1` (configuration not stated), the MIC with Candida albicans [1] is over 64 µg/mL; with Candida albicans [2], over 64 µg/mL; in the experiment with Candida tropicalis, 8 µg/mL (≈ 19.8 µM); with Cryptococcus neoformans, over 64 µg/mL; in the experiment on Candida parapsilosis, over 64 µg/mL; in the experiment with Nakaseomyces glabratus, over 64 µg/mL. The MIC with Pichia kudriavzevii and in the experiment on Aspergillus fumigatus was over 64 µg/mL in each case.
Turning to `Cc1cccc(-c2ccc(C3=NC(Cn4ccnc4)(c4ccc(F)cc4)CO3)s2)c1` (configuration not stated), the MIC in the experiment on Candida albicans [1] is 0.5 µg/mL (≈ 1.2 µM); in the experiment on Candida albicans [2] it was 0.25 µg/mL (≈ 0.599 µM); in the experiment on Candida tropicalis, 4 µg/mL (≈ 9.58 µM); with Cryptococcus neoformans, 16 µg/mL (≈ 38.3 µM); with Candida parapsilosis, 16 µg/mL (≈ 38.3 µM); with Nakaseomyces glabratus, over 64 µg/mL. Besides, the MIC in the experiment with Pichia kudriavzevii is over 64 µg/mL; with Aspergillus fumigatus it was 32 µg/mL (≈ 76.6 µM).
Consider `Fc1ccc(C2(Cn3ccnc3)COC(c3ccc(-c4ccc(C(F)(F)F)cc4)s3)=N2)cc1` (configuration not stated), for which the MIC with Candida albicans [1], in the experiment on Candida albicans [2], with Candida tropicalis, in the experiment on Cryptococcus neoformans, in the experiment on Candida parapsilosis and in the experiment with Nakaseomyces glabratus was over 64 µg/mL throughout. For the same compound, the MIC in the experiment with Pichia kudriavzevii and in the experiment with Aspergillus fumigatus was over 64 µg/mL each time.
`COc1cccc(C2(Cn3ccnc3)COC(c3ccc(-c4ccccc4)s3)=N2)c1` (configuration not stated): the MIC is 0.125 µg/mL (≈ 0.301 µM) with Candida albicans [1]; 1 µg/mL (≈ 2.41 µM) with Candida albicans [2]; 1 µg/mL (≈ 2.41 µM) in the experiment with Candida tropicalis; over 64 µg/mL with Cryptococcus neoformans; over 64 µg/mL with Candida parapsilosis; over 64 µg/mL with Nakaseomyces glabratus. In addition, the MIC with Pichia kudriavzevii and with Aspergillus fumigatus was over 64 µg/mL throughout.
As to `Fc1ccc(C2(Cn3ccnc3)COC(c3ccc(-c4ccc(OCC(F)(F)F)cc4)s3)=N2)cc1` (configuration not stated), the MIC in the experiment with Candida albicans [1], in the experiment on Candida albicans [2], in the experiment with Candida tropicalis, in the experiment on Cryptococcus neoformans, with Candida parapsilosis and in the experiment with Nakaseomyces glabratus was over 64 µg/mL each time. Moreover, the MIC in the experiment with Pichia kudriavzevii and in the experiment with Aspergillus fumigatus was over 64 µg/mL each time.
Consider `Clc1cccc(C2(Cn3ccnc3)COC(c3ccc(-c4ccccc4)s3)=N2)c1` (configuration not stated), for which the MIC with Candida albicans [1] is over 64 µg/mL; in the experiment with Candida albicans [2], over 64 µg/mL; in the experiment on Candida tropicalis, over 64 µg/mL; with Cryptococcus neoformans, 2 µg/mL (≈ 4.76 µM); in the experiment with Candida parapsilosis it was 4 µg/mL (≈ 9.53 µM); with Nakaseomyces glabratus, over 64 µg/mL. Also, the MIC in the experiment with Pichia kudriavzevii and with Aspergillus fumigatus was over 64 µg/mL throughout.
For `N#Cc1ccc(-c2ccc(C3=NC(Cn4ccnc4)(c4ccc(F)cc4)CO3)s2)cc1` (configuration not stated), the MIC in the experiment with Candida albicans [1] is 0.125 µg/mL (≈ 0.292 µM); in the experiment with Candida albicans [2], 1 µg/mL (≈ 2.33 µM); in the experiment on Candida tropicalis, 16 µg/mL (≈ 37.3 µM); in the experiment on Cryptococcus neoformans it was over 64 µg/mL; in the experiment on Candida parapsilosis, over 64 µg/mL; in the experiment with Nakaseomyces glabratus it was over 64 µg/mL. Moreover, the MIC is over 64 µg/mL in the experiment with Pichia kudriavzevii and 16 µg/mL (≈ 37.3 µM) in the experiment with Aspergillus fumigatus.
With `COc1ccc(-c2ccc(C3=NC(Cn4ccnc4)(c4ccc(F)cc4)CO3)s2)cc1` (configuration not stated), the minimum inhibitory concentration (MIC) in the experiment with Candida albicans [1], with Candida albicans [2], in the experiment on Candida tropicalis, with Cryptococcus neoformans, in the experiment with Candida parapsilosis and in the experiment on Nakaseomyces glabratus was over 64 µg/mL throughout. In addition, the minimum inhibitory concentration (MIC) in the experiment with Pichia kudriavzevii and in the experiment with Aspergillus fumigatus was over 64 µg/mL in each case.

For the origin of these results see ChEMBL document CHEMBL5131399, “Broadening antifungal spectrum and improving metabolic stablity based on a scaffold strategy: Design, synthesis, and evaluation of novel 4-phenyl-4,5-dihydrooxazole derivatives as potent fungistatic and fungicidal reagents” (Eur J Med Chem, 2022).
